Patent publication US7582760B2, “Benzimidazolone and dihydroindolone derivatives and uses thereof” (Roche Palo Alto LLC, priority 2005, dated 2009)
Counter-ions that a name gives are not always drawn.

Experiments:
[1] = molecular target: T1, recombinant human 5-HT2A receptor (Homo sapiens, UniProt P28223); experiment: Radioligand binding, competition for [3H]Ketanserin in CHO-K1 cell membranes; details: [3H]Ketanserin displacement, read-out: pKi for the 5-HT2A receptor (converted)
T1 construct: expressed in transfected cells; membranes
T1 sequence (P28223 whole entry): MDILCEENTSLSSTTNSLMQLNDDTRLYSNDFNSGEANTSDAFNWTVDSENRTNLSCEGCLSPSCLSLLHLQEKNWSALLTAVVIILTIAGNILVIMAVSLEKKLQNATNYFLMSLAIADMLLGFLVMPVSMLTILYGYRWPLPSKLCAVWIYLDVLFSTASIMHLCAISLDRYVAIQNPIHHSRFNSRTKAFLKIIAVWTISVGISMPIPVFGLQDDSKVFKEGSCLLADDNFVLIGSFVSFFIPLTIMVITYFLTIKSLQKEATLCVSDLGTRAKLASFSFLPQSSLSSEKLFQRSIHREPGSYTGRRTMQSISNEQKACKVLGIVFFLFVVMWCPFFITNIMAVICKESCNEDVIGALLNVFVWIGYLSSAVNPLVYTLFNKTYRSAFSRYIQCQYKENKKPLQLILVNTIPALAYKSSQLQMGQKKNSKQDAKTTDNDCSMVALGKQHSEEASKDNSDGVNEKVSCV
Procedure: (§1) The binding activity of compounds of this invention in vitro was determined as follows. Duplicate determinations of 5-HT6 ligand affinity were made by competing for binding of [^3H]LSD in cell membranes derived from HEK293 cells stably expressing recombinant human 5-HT6 receptor. Duplicate determinations of 5-HT2A ligand affinity were made by competing for binding of [^3H]Ketanserin (3-(2-(4-(4-fluorobenzoyl)piperidinol)ethyl)-2,4(1H,3H)-quinazolinedione) in cell membranes derived from CHO-K^1 cells stably expressing recombinant human 5-HT2A receptor. Membranes were prepared from HEK 293 cell lines by the method described by Monsma et al., Molecular Pharmacology, Vol. 43 pp. 320-327 (1993), and from CHO-K1 cell lines as described by Bonhaus et al., Br J. Pharmacol. June; 115(4):622-8 (1995).
(§2) For estimation of affinity at the 5-HT6 receptor, all determinations were made in assay buffer containing 50 mM Tris-HCl, 10 mM MgSO4, 0.5 mM EDTA, 1 mM ascorbic acid, pH 7.4 at 37° C., in a 250 microliter reaction volume. […]
(§3) Assay tubes containing [^3H] […] LSD or [^3H]Ketanserin were determined as radioactive counts per minute using Packard TopCount.
(§4) Displacement of [^3H]LSD or [^3H]Ketanserin from the binding sites was quantified by fitting concentration-binding data to a 4-parameter logistic equation: […]

[2] = molecular target: T2, recombinant human 5-HT6 receptor (Homo sapiens, UniProt P50406); experiment: Radioligand binding, competition for [3H]LSD in HEK293 cell membranes; details: receptor not printed for this value in the sentence; radioligand binding of Example 13
T2 construct: expressed in transfected cells; membranes
T2 sequence (P50406 whole entry): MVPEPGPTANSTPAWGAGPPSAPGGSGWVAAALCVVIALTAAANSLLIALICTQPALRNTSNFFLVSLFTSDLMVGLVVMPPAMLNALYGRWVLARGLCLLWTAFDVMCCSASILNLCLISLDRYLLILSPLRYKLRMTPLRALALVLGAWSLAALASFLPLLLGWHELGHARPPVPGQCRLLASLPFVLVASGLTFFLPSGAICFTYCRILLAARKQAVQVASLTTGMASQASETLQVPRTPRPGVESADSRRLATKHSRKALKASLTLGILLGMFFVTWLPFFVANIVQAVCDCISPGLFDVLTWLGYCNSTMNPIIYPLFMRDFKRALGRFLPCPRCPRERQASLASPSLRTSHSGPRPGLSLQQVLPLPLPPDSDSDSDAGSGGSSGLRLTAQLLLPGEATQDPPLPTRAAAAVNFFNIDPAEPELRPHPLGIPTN
Procedure: as §1, §2, §3, §4

Row | SMILES | melting point [°C] | further results
1 | O=c1[nH]c2c(OC3CNC3)cccc2n1Cc1ccccc1 | 181 to 184 | 
2 | CNCCOc1cccc2c1n(C)c(=O)n2Cc1ccccc1 (as salt: hydrochloride) | 203.8 to 205.1 | 
3 | O=c1[nH]c2c(OCC3CNC3)cccc2n1Cc1ccccc1 (as salt: hydrochloride) | 210 to 216.6 | 
4 | O=C1Cc2c(N3CCNCC3)cccc2N1Cc1ccc(F)c(F)c1 [1-(3,4-Difluoro-benzyl)-4-piperazin-1-yl-1,3-dihydro-indol-2-one] |  | Ki [1]: ~0.331 nM
5 | O=c1[nH]c2c(N3CCNCC3)ccc(Cl)c2n1Cc1cccc(F)c1 [7-Chloro-1-(3-fluoro-benzyl)-4-piperazin-1-yl-1,3-dihydro-benzoimidazol-2-one] |  | Ki [2]: ~0.331 nM
